Assay results taken from PubChem BioAssay AID2060498 (Molecular Pharmacology Branch, DTP, NCI, 2025).

Test system: 171881-019-R-J1-PDC tumor spheroids, viability
Assay: Anticancer human tumor 171881-019-R-J1-PDC patient-derived invasive breast carcinoma cell line growth inhibition [GQUAD]
Conditions: spheroids with HUVEC and MSC; for IC50: curve of first compound; for viability, T/C: stronger effect = lower value
How it was run: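 Viability of tumor cells grown as complex spheroids with endothelial and stromal cells, exposed to drug combinations. Top concentration at or near clinical Cmax (else 10 microM), diluted in half-log increments.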

[1] = second compound 0.0316 µM, first compound 0.0316 µM
[2] = second compound 0.0316 µM, first compound 0.1 µM
[3] = second compound 0.0316 µM, first compound 0.316 µM
[4] = second compound 0.0316 µM, first compound 1 µM
[5] = second compound 0.0316 µM, first compound 3.16 µM
[6] = second compound 0.0316 µM, first compound 10 µM
[7] = second compound 0.1 µM, first compound 0.0316 µM
[8] = second compound 0.1 µM, first compound 0.1 µM
[9] = second compound 0.1 µM, first compound 0.316 µM
[10] = second compound 0.1 µM, first compound 1 µM
[11] = second compound 0.1 µM, first compound 3.16 µM
[12] = second compound 0.1 µM, first compound 10 µM
[13] = second compound 0.316 µM, first compound 0.0316 µM
[14] = second compound 0.316 µM, first compound 0.1 µM
[15] = second compound 0.316 µM, first compound 0.316 µM
[16] = second compound 0.316 µM, first compound 1 µM
[17] = second compound 0.316 µM, first compound 3.16 µM
[18] = second compound 0.316 µM, first compound 10 µM
[19] = second compound 1 µM, first compound 0.0316 µM
[20] = second compound 1 µM, first compound 0.1 µM
[21] = second compound 1 µM, first compound 0.316 µM
[22] = second compound 1 µM, first compound 1 µM
[23] = second compound 1 µM, first compound 3.16 µM
[24] = second compound 1 µM, first compound 10 µM
[25] = second compound 3.16 µM, first compound 0.0316 µM
[26] = second compound 3.16 µM, first compound 0.1 µM
[27] = second compound 3.16 µM, first compound 0.316 µM
[28] = second compound 3.16 µM, first compound 1 µM
[29] = second compound 3.16 µM, first compound 3.16 µM
[30] = second compound 3.16 µM, first compound 10 µM
[31] = second compound 10 µM, first compound 0.0316 µM
[32] = second compound 10 µM, first compound 0.1 µM
[33] = second compound 10 µM, first compound 0.316 µM
[34] = second compound 10 µM, first compound 1 µM
[35] = second compound 10 µM, first compound 3.16 µM
[36] = second compound 10 µM, first compound 10 µM
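For viability, T/C in this document: 100% = DMSO vehicle control viability.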

**Q.** How did the IC50 (second compound 0.0316 µM) turn out when `COc1ccc([C@@H](O)c2cc(-c3ncnc4cc(N5CCOCC5)ccc34)c(F)cc2Cl)nn1` + CN(C)c1ccc(Nc2c3ccc(NC(=O)CCN4CCCC4)cc3nc3cc(NC(=O)CCN4CCCC4)ccc23)cc1 was run?
**A.** The IC50 was 544 nM.

**Q.** And the IC50 (second compound 0.1 µM)?
**A.** The IC50 was 570 nM.

**Q.** What about the IC50 (second compound 0.316 µM) of the same molecule?
**A.** Its IC50 is 335 nM.

**Q.** What about the IC50 (second compound 1 µM) of the same molecule?
**A.** Its IC50 is less than 31.6 nM.

**Q.** And the IC50 (second compound 3.16 µM)?
**A.** Its IC50 is less than 31.6 nM.

**Q.** What about the IC50 (second compound 10 µM) of the same molecule?
**A.** The IC50 was less than 31.6 nM.

**Q.** And the viability, T/C [1]?
**A.** Its viability, T/C is 97.2%.

**Q.** What about the viability, T/C [2] of the same molecule?
**A.** Its viability, T/C is 85.8%.

**Q.** What about the viability, T/C [3] of the same molecule?
**A.** The viability, T/C was 62.5%.

**Q.** What about the viability, T/C [4] of the same molecule?
**A.** Its viability, T/C is 37.6%.

**Q.** What about the viability, T/C [5] of the same molecule?
**A.** The viability, T/C was 7.36%.

**Q.** What about the viability, T/C [6] of the same molecule?
**A.** Its viability, T/C is 1.57%.

**Q.** What about the viability, T/C [7] of the same molecule?
**A.** The viability, T/C was 94.5%.

**Q.** What about the viability, T/C [8] of the same molecule?
**A.** Its viability, T/C is 87%.

**Q.** And the viability, T/C [9]?
**A.** Its viability, T/C is 64.2%.

**Q.** And the viability, T/C [10]?
**A.** The viability, T/C was 37.5%.

**Q.** What about the viability, T/C [11] of the same molecule?
**A.** Its viability, T/C is 7.17%.

**Q.** And the viability, T/C [12]?
**A.** The viability, T/C was 1.52%.

**Q.** What about the viability, T/C [13] of the same molecule?
**A.** Its viability, T/C is 79.3%.

**Q.** And the viability, T/C [14]?
**A.** The viability, T/C was 72.5%.

**Q.** And the viability, T/C [15]?
**A.** Its viability, T/C is 52.2%.

**Q.** What about the viability, T/C [16] of the same molecule?
**A.** The viability, T/C was 18.2%.

**Q.** And the viability, T/C [17]?
**A.** Its viability, T/C is 4.99%.

**Q.** What about the viability, T/C [18] of the same molecule?
**A.** Its viability, T/C is 0.9%.

**Q.** And the viability, T/C [19]?
**A.** Its viability, T/C is 27.1%.

**Q.** What about the viability, T/C [20] of the same molecule?
**A.** The viability, T/C was 17.4%.

**Q.** What about the viability, T/C [21] of the same molecule?
**A.** Its viability, T/C is 18.6%.

**Q.** What about the viability, T/C [22] of the same molecule?
**A.** Its viability, T/C is 4.62%.

**Q.** And the viability, T/C [23]?
**A.** Its viability, T/C is 1.37%.

**Q.** What about the viability, T/C [24] of the same molecule?
**A.** Its viability, T/C is 0.46%.

**Q.** And the viability, T/C [25]?
**A.** The viability, T/C was 1.64%.

**Q.** And the viability, T/C [26]?
**A.** Its viability, T/C is 2.1%.

**Q.** What about the viability, T/C [27] of the same molecule?
**A.** The viability, T/C was 1.49%.

**Q.** And the viability, T/C [28]?
**A.** Its viability, T/C is 0.45%.

**Q.** And the viability, T/C [29]?
**A.** The viability, T/C was 0.38%.

**Q.** And the viability, T/C [30]?
**A.** Its viability, T/C is 0.23%.

**Q.** And the viability, T/C [31]?
**A.** The viability, T/C was 0.4%.

**Q.** And the viability, T/C [32]?
**A.** Its viability, T/C is 0.57%.

**Q.** And the viability, T/C [33]?
**A.** The viability, T/C was 0.32%.

**Q.** And the viability, T/C [34]?
**A.** The viability, T/C was 0.19%.

**Q.** What about the viability, T/C [35] of the same molecule?
**A.** Its viability, T/C is 0.14%.

**Q.** And the viability, T/C [36]?
**A.** The viability, T/C was 0.38%.

**Q.** What does the source list for `CC1COCCN1c1cc(-c2ccnn2C)c2ccnc(-c3ccn[nH]3)c2n1` (stereo not drawn) + Cc1cnc(CNC(=O)c2c(=O)c3ccc(N4CCCN(C)CC4)nc3n3c2sc2ccccc23)cn1?
**A.** IC50 (second compound 0.0316 µM): < 31.6 nM; IC50 (second compound 0.1 µM): < 31.6 nM; IC50 (second compound 0.316 µM): < 31.6 nM; IC50 (second compound 1 µM): < 31.6 nM; IC50 (second compound 3.16 µM): 36.8 nM; IC50 (second compound 10 µM): < 31.6 nM; viability, T/C [1]: 41.9%; viability, T/C [2]: 22.4%; viability, T/C [3]: 13.9%; viability, T/C [4]: 8.64%; viability, T/C [5]: 5.53%; viability, T/C [6]: 5.12%; viability, T/C [7]: 42.5%; viability, T/C [8]: 24.9%; viability, T/C [9]: 14.8%; viability, T/C [10]: 8.31%; viability, T/C [11]: 5.49%; viability, T/C [12]: 5.8%; viability, T/C [13]: 41.5%; viability, T/C [14]: 27.8%; viability, T/C [15]: 17.2%; viability, T/C [16]: 9.26%; viability, T/C [17]: 5.7%; viability, T/C [18]: 5.04%; viability, T/C [19]: 46.4%; viability, T/C [20]: 33%; viability, T/C [21]: 21.6%; viability, T/C [22]: 11.2%; viability, T/C [23]: 6.82%; viability, T/C [24]: 4.69%; viability, T/C [25]: 52.4%; viability, T/C [26]: 35.1%; viability, T/C [27]: 25.4%; viability, T/C [28]: 13.4%; viability, T/C [29]: 6.44%; viability, T/C [30]: 4.66%; viability, T/C [31]: 48.2%; viability, T/C [32]: 38.8%; viability, T/C [33]: 24.1%; viability, T/C [34]: 13.9%; viability, T/C [35]: 7.41%; viability, T/C [36]: 4.56%

**Q.** Which results are given for `O=C(c1cc(Cc2n[nH]c(=O)c3ccccc23)ccc1F)N1CCN(C(=O)C2CC2)CC1` + Cc1cnc(CNC(=O)c2c(=O)c3ccc(N4CCCN(C)CC4)nc3n3c2sc2ccccc23)cn1?
**A.** IC50 (second compound 0.0316 µM): > 10000 nM; IC50 (second compound 0.1 µM): > 10000 nM; IC50 (second compound 0.316 µM): > 10000 nM; IC50 (second compound 1 µM): > 10000 nM; IC50 (second compound 3.16 µM): > 10000 nM; IC50 (second compound 10 µM): > 10000 nM; viability, T/C [1]: 97.3%; viability, T/C [2]: 93.3%; viability, T/C [3]: 87%; viability, T/C [4]: 87.1%; viability, T/C [5]: 80.9%; viability, T/C [6]: 75.1%; viability, T/C [7]: 79.9%; viability, T/C [8]: 82.7%; viability, T/C [9]: 76.3%; viability, T/C [10]: 68.4%; viability, T/C [11]: 64.1%; viability, T/C [12]: 62%; viability, T/C [13]: 70.1%; viability, T/C [14]: 69.8%; viability, T/C [15]: 71.3%; viability, T/C [16]: 65%; viability, T/C [17]: 67.8%; viability, T/C [18]: 58.2%; viability, T/C [19]: 66.6%; viability, T/C [20]: 61.5%; viability, T/C [21]: 68.9%; viability, T/C [22]: 58.6%; viability, T/C [23]: 64.1%; viability, T/C [24]: 57.8%; viability, T/C [25]: 59.4%; viability, T/C [26]: 55.4%; viability, T/C [27]: 64.6%; viability, T/C [28]: 56.5%; viability, T/C [29]: 55.3%; viability, T/C [30]: 55.7%; viability, T/C [31]: 54.3%; viability, T/C [32]: 60.4%; viability, T/C [33]: 57.9%; viability, T/C [34]: 55.5%; viability, T/C [35]: 59.3%; viability, T/C [36]: 55.4%

**Q.** What does the source list for `CC1COCCN1c1cc(-c2ccnn2C)c2ccnc(-c3ccn[nH]3)c2n1` (stereo not drawn) + CN(C)c1ccc(Nc2c3ccc(NC(=O)CCN4CCCC4)cc3nc3cc(NC(=O)CCN4CCCC4)ccc23)cc1?
**A.** IC50 (second compound 0.0316 µM): 65.2 nM; IC50 (second compound 0.1 µM): 51.9 nM; IC50 (second compound 0.316 µM): 40.8 nM; IC50 (second compound 1 µM): < 31.6 nM; IC50 (second compound 3.16 µM): < 31.6 nM; IC50 (second compound 10 µM): < 31.6 nM; viability, T/C [1]: 76.9%; viability, T/C [2]: 34.1%; viability, T/C [3]: 12.4%; viability, T/C [4]: 5.31%; viability, T/C [5]: 1.79%; viability, T/C [6]: 1.42%; viability, T/C [7]: 64.8%; viability, T/C [8]: 30.4%; viability, T/C [9]: 11.6%; viability, T/C [10]: 5.34%; viability, T/C [11]: 1.93%; viability, T/C [12]: 1.63%; viability, T/C [13]: 55.2%; viability, T/C [14]: 31.6%; viability, T/C [15]: 10.3%; viability, T/C [16]: 3.25%; viability, T/C [17]: 1.4%; viability, T/C [18]: 1.07%; viability, T/C [19]: 20.7%; viability, T/C [20]: 8.28%; viability, T/C [21]: 4.88%; viability, T/C [22]: 1.45%; viability, T/C [23]: 0.66%; viability, T/C [24]: 0.48%; viability, T/C [25]: 1.59%; viability, T/C [26]: 1.01%; viability, T/C [27]: 0.89%; viability, T/C [28]: 0.34%; viability, T/C [29]: 0.71%; viability, T/C [30]: 0.14%; viability, T/C [31]: 0.16%; viability, T/C [32]: 0.3%; viability, T/C [33]: 0.33%; viability, T/C [34]: 0.32%; viability, T/C [35]: 0.43%; viability, T/C [36]: 0.14%
